Measured values from US20060154243A1 (priority 2003, published 2006).

Key:
[1] = tested on: serum 1a (individual 1, early serum); type: binding, human
[2] = tested on: serum 1b (individual 1, late serum); type: binding, human
serum 2 (individual 2) = type: binding, human
serum 6 (individual 6) = type: binding, human
serum 37 (individual 37) = type: binding, human
serum 62 (individual 62) = type: binding, human
serum London = type: binding, human
serum SARS-yellow = type: binding, human
serum SARS-green = type: binding, human
[3] = tested on: control serum LUMC (pooled serum of ten healthy hospital workers); type: binding, human
[4] = tested on: control serum Blood-bank (commercial negative donor pooled serum); type: binding, human
[5] = tested on: rabbit serum obtained by immunizing with SARS-CoV strain Frankfurt 1; type: binding
[6] = tested on: sera SARS-green, SARS-yellow, 1a, 1b, 2, 6, 37, 62 and London; type: binding, human

Sequence | Control serum LUMC linear peptides [3] | Control serum LUMC looped peptides [3] | Control Serum Blood-Bank Looped peptides [4] | Control serum Blood-bank linear peptides [4] | Rabbit serum linear peptides [5] | Rabbit serum looped peptides [5] | Recognition of the peptide by sera of individuals infected by SARS-CoV, form recognized [6] | further results
AAVGEILLLEWLAEV | 0.6 | 0.7 | 0.7 | 0.4 |  |  |  | Binding of serum 1a to linear peptides of Orf14 of SARS-CoV TOR2 [1]: 0.6; Binding of serum 1b to linear peptides of Orf14 of SARS-CoV TOR2 [2]: 0.5; Binding of serum 2 to linear peptides of Orf14 of SARS-CoV TOR2 (serum 2 (individual 2)): 0.6; Binding of serum 6 to linear peptides of Orf14 of SARS-CoV TOR2 (serum 6 (individual 6)): 0.5; Binding of serum 37 to linear peptides of Orf14 of SARS-CoV TOR2 (serum 37 (individual 37)): 0.8; Binding of serum 62 to linear peptides of Orf14 of SARS-CoV TOR2 (serum 62 (individual 62)): 0.6; Binding of serum London to linear peptides of Orf14 of SARS-CoV TOR2 (serum London): 0.6; Binding of serum SARS-yellow to linear peptides of Orf14 of SARS-CoV TOR2 (serum SARS-yellow): 0.6; Binding of serum SARS-green to linear peptides of Orf14 of SARS-CoV TOR2 (serum SARS-green): 0.5
AEAAVKPLLAPHHVV | 1.0 | 0.6 | 0.6 | 0.8 |  |  |  | Binding of serum 1a to linear peptides of Orf14 of SARS-CoV TOR2 [1]: 0.7; Binding of serum 1b to linear peptides of Orf14 of SARS-CoV TOR2 [2]: 0.5; Binding of serum 2 to linear peptides of Orf14 of SARS-CoV TOR2 (serum 2 (individual 2)): 1.3; Binding of serum 6 to linear peptides of Orf14 of SARS-CoV TOR2 (serum 6 (individual 6)): 0.6; Binding of serum 37 to linear peptides of Orf14 of SARS-CoV TOR2 (serum 37 (individual 37)): 0.8; Binding of serum 62 to linear peptides of Orf14 of SARS-CoV TOR2 (serum 62 (individual 62)): 0.8; Binding of serum London to linear peptides of Orf14 of SARS-CoV TOR2 (serum London): 0.8; Binding of serum SARS-yellow to linear peptides of Orf14 of SARS-CoV TOR2 (serum SARS-yellow): 0.8; Binding of serum SARS-green to linear peptides of Orf14 of SARS-CoV TOR2 (serum SARS-green): 0.8
APHHVVAVIQEIQLL | 0.6 | 0.5 | 0.6 | 0.3 |  |  |  | Binding of serum 1a to linear peptides of Orf14 of SARS-CoV TOR2 [1]: 0.5; Binding of serum 1b to linear peptides of Orf14 of SARS-CoV TOR2 [2]: 0.4; Binding of serum 2 to linear peptides of Orf14 of SARS-CoV TOR2 (serum 2 (individual 2)): 0.4; Binding of serum 6 to linear peptides of Orf14 of SARS-CoV TOR2 (serum 6 (individual 6)): 0.4; Binding of serum 37 to linear peptides of Orf14 of SARS-CoV TOR2 (serum 37 (individual 37)): 0.5; Binding of serum 62 to linear peptides of Orf14 of SARS-CoV TOR2 (serum 62 (individual 62)): 0.3; Binding of serum London to linear peptides of Orf14 of SARS-CoV TOR2 (serum London): 0.3; Binding of serum SARS-yellow to linear peptides of Orf14 of SARS-CoV TOR2 (serum SARS-yellow): 0.3; Binding of serum SARS-green to linear peptides of Orf14 of SARS-CoV TOR2 (serum SARS-green): 0.1
FSLEIQDLEEPCTKV | 0.6 | 0.7 | 1.0 | 0.7 | 0.4 | 0.5 | recognized in linear and in looped form | 
FWFSLEIQDLEEPCT | 0.3 | 0.8 | 1.1 | 0.5 | 0.1 | 0.5 | recognized in linear and in looped form | 
IFWFSLEIQDLEEPC | 0.7 | 0.8 | 0.8 | 0.8 | 0.3 | 0.5 | recognized in linear and in looped form | 
IIFWFSLEIQDLEEP | 0.7 | 0.8 | 0.9 | 0.9 | 0.4 | 0.0 | recognized in linear and in looped form | 
IMLIIFWFSLEIQDL | 0.7 | 0.4 | 0.6 | 0.8 | 0.9 | 0.1 | recognized in linear and in looped form | 
LATTEELPDEFVVVT |  |  |  |  | 0.1 | 0.6 | recognized in linear and in looped form | 
LIIFWFSLEIQDLEE | 0.7 | 0.9 | 0.7 | 0.8 | 0.5 | 0.7 | recognized in linear and in looped form | 
LIMLIIFWFSLEIQD | 1.1 | 0.7 | 0.7 | 0.9 | 0.4 | 0.6 | recognized in linear and in looped form | 
LTITRMEDAMGQGQN |  |  |  |  | 0.3 | 0.3 | only recognized in looped form | 
MEDAMGQGQNSADPK |  |  |  |  | 0.1 | 0.4 | only recognized in looped form | 
MLIIFWFSLEIQDLE | 0.9 | 0.8 | 0.7 | 1.0 | 1.7 | 0.5 | recognized in linear and in looped form | 
MTKLATTEELPDEFV |  |  |  |  | 0.1 | 0.6 | recognized in linear and in looped form | 
NQTNVVPPALHLVDP |  |  |  |  | 0.1 | 0.4 | recognized in linear and in looped form | 
PALHLVDPQIQLTIT |  |  |  |  | 1.3 | 0.4 | recognized in linear and in looped form | 

Sequence | Control serum LUMC linear peptides [3] | Control serum LUMC looped peptides [3] | Control Serum Blood-Bank Looped peptides [4] | Control serum Blood-bank linear peptides [4] | Rabbit serum linear peptides [5] | Rabbit serum looped peptides [5] | Recognition of the peptide by sera of individuals infected by SARS-CoV, form recognized [6] | further results
PNQTNVVPPALHLVD |  |  |  |  | 0.4 | 0.2 | recognized in linear and in looped form | 
PPALHLVDPQIQLTI |  |  |  |  | 0.2 | 0.3 | recognized in linear and in looped form | 
QMTKLATTEELPDEF |  |  |  |  | 0.1 | 0.6 | recognized in linear and in looped form | 
QRCASNKPHVLEDPC |  |  |  |  | 0.1 | 0.5 | recognized in linear and in looped form | 
QTNVVPPALHLVDPQ |  |  |  |  | 0.1 | 0.4 | recognized in linear and in looped form | 
RCASNKPHVLEDPCK |  |  |  |  | 0.1 | 0.6 | recognized in linear and in looped form | 
RMEDAMGQGQNSADP |  |  |  |  | 0.1 | 0.5 | only recognized in looped form | 
SCICTVVQRCASNKP |  |  |  |  | 0.0 | 0.8 | recognized in linear and in looped form | 
TITRMEDAMGQGQNS |  |  |  |  | 0.1 | 0.6 | only recognized in looped form | 
TKLATTEELPDEFVV |  |  |  |  | 0.1 | 0.6 | recognized in linear and in looped form | 
TRMEDAMGQGQNSAD |  |  |  |  | 0.4 | 0.4 | only recognized in looped form | 
VQMTKLATTEELPDE |  |  |  |  | 0.3 | 0.6 | recognized in linear and in looped form | 
VQRCASNKPHVLEDP |  |  |  |  | 0.1 | 0.5 | recognized in linear and in looped form | 
VVQMTKLATTEELPD |  |  |  |  | 0.3 | 0.6 | recognized in linear and in looped form | 
VVQRCASNKPHVLED |  |  |  |  | 0.2 | 0.5 | recognized in linear and in looped form | 
WFSLEIQDLEEPCTK | 0.5 | 0.5 | 0.7 | 0.6 | 0.0 | 0.4 | recognized in linear and in looped form | 
